Experimental findings from ChEMBL document CHEMBL1152526, “Synthesis of C(7) modified chrysin derivatives designing to inhibit beta-ketoacyl-acyl carrier protein synthase III (FabH) as antibiotics” (Bioorg Med Chem, 2009) are described below.

For one assay, the system named is Escherichia coli. Nature of the assay: Antibacterial activity against Escherichia coli after 24 hrs by MTT assay. It counts as functional. (In general: Tetrazolium assays rely on reduction of a dye to a coloured formazan, in cell work by metabolically active cells.)
A further assay deals with Pseudomonas fluorescens. The assay is described as follows: Antibacterial activity against Pseudomonas fluorescens after 24 hrs by MTT assay. Type of assay: functional.
Another assay deals with Bacillus subtilis. The assay is described as follows: Antibacterial activity against Bacillus subtilis after 24 hrs by MTT assay. It counts as functional.
Another assay relates to Staphylococcus aureus. The assay is described as follows: Antibacterial activity against Staphylococcus aureus after 24 hrs by MTT assay. Type of assay: functional.
Assay [1] in a line: Inhibition of Escherichia coli FabH overexpressed in Escherichia coli DH10B cells by liquid scintillation counting.

Values after ≈ are worked out from the molar mass of the structure shown.

The MIC is the lowest concentration that inhibits growth of the organism. Low values mean a more susceptible organism, high ones a less susceptible organism. Consider `CCCCN(CCCC)CCCOc1cc(O)c2c(=O)cc(-c3ccccc3)oc2c1`, for which the MIC in the assay on Escherichia coli, with Pseudomonas fluorescens, in the assay on Bacillus subtilis and with Staphylococcus aureus was > 50 µg/mL each time.
Consider `CCCCN(CCCC)CCOc1cc(O)c2c(=O)cc(-c3ccccc3)oc2c1`, for which the minimum inhibitory concentration (MIC) with Escherichia coli, against Pseudomonas fluorescens, against Bacillus subtilis and in the assay with Staphylococcus aureus was > 50 µg/mL throughout.
In general, IC50 refers to the concentration needed to halve the response being measured. For `CN1CCN(CCCOc2cc(O)c3c(=O)cc(-c4ccccc4)oc3c2)CC1`, the MIC was determined as 6.25 µg/mL (≈ 15.8 µM) against Escherichia coli, 12.5 µg/mL (≈ 31.7 µM) against Pseudomonas fluorescens, 6.25 µg/mL (≈ 15.8 µM) against Bacillus subtilis and 3.13 µg/mL (≈ 7.93 µM) against Staphylococcus aureus. The same compound registered an IC50 in assay [1] of 5.2 µM.
In the case of `O=c1cc(-c2ccccc2)oc2cc(OCCCNCCO)cc(O)c12`, the MIC against Escherichia coli amounted to 6.25 µg/mL (≈ 17.6 µM); in the assay on Pseudomonas fluorescens it was 12.5 µg/mL (≈ 35.2 µM); against Bacillus subtilis, 12.5 µg/mL (≈ 35.2 µM); with Staphylococcus aureus, 25 µg/mL (≈ 70.3 µM).
With `O=c1cc(-c2ccccc2)oc2cc(OCCN3CCCC3)cc(O)c12`, the MIC with Escherichia coli is 6.25 µg/mL (≈ 17.8 µM); in the assay with Pseudomonas fluorescens, 12.5 µg/mL (≈ 35.6 µM); with Bacillus subtilis, 25 µg/mL (≈ 71.1 µM); in the assay with Staphylococcus aureus, 25 µg/mL (≈ 71.1 µM).
In the case of `O=c1cc(-c2ccccc2)oc2cc(OCCCN3CCNCC3)cc(O)c12`, the MIC against Escherichia coli was found to be 3.13 µg/mL (≈ 8.23 µM); in the assay with Pseudomonas fluorescens, 12.5 µg/mL (≈ 32.9 µM); against Bacillus subtilis, 12.5 µg/mL (≈ 32.9 µM); with Staphylococcus aureus, 6.25 µg/mL (≈ 16.4 µM). In assay [1], this compound showed an IC50 of 6.6 µM.
For `CCCN(CCC)CCOc1cc(O)c2c(=O)cc(-c3ccccc3)oc2c1`, the MIC with Escherichia coli, against Pseudomonas fluorescens, in the assay with Bacillus subtilis and against Staphylococcus aureus was > 50 µg/mL each time.
In the case of `CN1CCN(CCOc2cc(O)c3c(=O)cc(-c4ccccc4)oc3c2)CC1`, the minimal inhibitory concentration (MIC) turned out to be 12.5 µg/mL (≈ 32.9 µM) in the assay with Escherichia coli, 25 µg/mL (≈ 65.7 µM) against Pseudomonas fluorescens, 50 µg/mL (≈ 131 µM) in the assay on Bacillus subtilis and 25 µg/mL (≈ 65.7 µM) in the assay on Staphylococcus aureus.
Turning to `CCCNCCCOc1cc(O)c2c(=O)cc(-c3ccccc3)oc2c1`, the MIC in the assay on Escherichia coli came out at 12.5 µg/mL (≈ 35.4 µM); in the assay with Pseudomonas fluorescens, 12.5 µg/mL (≈ 35.4 µM); in the assay with Bacillus subtilis, 25 µg/mL (≈ 70.7 µM); with Staphylococcus aureus, 12.5 µg/mL (≈ 35.4 µM).
With `O=c1cc(-c2ccccc2)oc2cc(OCCCN3CCCC3)cc(O)c12`, the MIC was 1.56 µg/mL (≈ 4.27 µM) against Escherichia coli, 6.25 µg/mL (≈ 17.1 µM) in the assay on Pseudomonas fluorescens, 6.25 µg/mL (≈ 17.1 µM) in the assay with Bacillus subtilis and 3.13 µg/mL (≈ 8.57 µM) in the assay with Staphylococcus aureus. In assay [1], this compound came in with an IC50 of 3.1 µM.
For the compound `CCCCNCCCOc1cc(O)c2c(=O)cc(-c3ccccc3)oc2c1`, the MIC in the assay with Escherichia coli was 12.5 µg/mL (≈ 34 µM); in the assay on Pseudomonas fluorescens, 12.5 µg/mL (≈ 34 µM); with Bacillus subtilis, 25 µg/mL (≈ 68 µM); against Staphylococcus aureus, 12.5 µg/mL (≈ 34 µM).
As to `NCCCNCCOc1cc(O)c2c(=O)cc(-c3ccccc3)oc2c1`, the MIC against Escherichia coli, with Pseudomonas fluorescens, in the assay with Bacillus subtilis and against Staphylococcus aureus was > 50 µg/mL in each case.
On to `CCCN(CCC)CCCOc1cc(O)c2c(=O)cc(-c3ccccc3)oc2c1`, for which the MIC in the assay on Escherichia coli is 25 µg/mL (≈ 63.2 µM); with Pseudomonas fluorescens, 25 µg/mL (≈ 63.2 µM); against Bacillus subtilis, 25 µg/mL (≈ 63.2 µM); in the assay with Staphylococcus aureus, > 50 µg/mL.
In the case of `O=c1cc(-c2ccccc2)oc2cc(O)cc(O)c12` [CHRYSIN], the MIC in the assay on Escherichia coli, in the assay on Pseudomonas fluorescens, against Bacillus subtilis and in the assay on Staphylococcus aureus was > 50 µg/mL each time.
`CCN(CC)CCCOc1cc(O)c2c(=O)cc(-c3ccccc3)oc2c1`: the MIC against Escherichia coli, with Pseudomonas fluorescens, with Bacillus subtilis and against Staphylococcus aureus was > 50 µg/mL in each case.
In the case of `NC[C@H]1O[C@H](O[C@H]2[C@H](O)[C@@H](O[C@H]3O[C@H](CO)[C@@H](O)[C@H](N)[C@H]3O)[C@H](N)C[C@@H]2N)[C@H](N)[C@@H](O)[C@@H]1O` [BEKANAMYCIN], the minimum inhibitory concentration (MIC) amounted to 3.13 µg/mL (≈ 6.47 µM) in the assay with Escherichia coli, 3.13 µg/mL (≈ 6.47 µM) in the assay with Pseudomonas fluorescens, 1.56 µg/mL (≈ 3.23 µM) in the assay on Bacillus subtilis and 1.56 µg/mL (≈ 3.23 µM) with Staphylococcus aureus.
In the case of `O=c1cc(-c2ccccc2)oc2cc(OCCN3CCNCC3)cc(O)c12`, the minimum inhibitory concentration (MIC) against Escherichia coli amounted to 12.5 µg/mL (≈ 34.1 µM); against Pseudomonas fluorescens, 6.25 µg/mL (≈ 17.1 µM); with Bacillus subtilis, 25 µg/mL (≈ 68.2 µM); in the assay with Staphylococcus aureus, 25 µg/mL (≈ 68.2 µM). This compound also showed a half-maximal inhibitory concentration (IC50) in assay [1] of 11.2 µM.
Regarding `CCCNCCOc1cc(O)c2c(=O)cc(-c3ccccc3)oc2c1`, the MIC was 25 µg/mL (≈ 73.7 µM) in the assay on Escherichia coli, 25 µg/mL (≈ 73.7 µM) in the assay with Pseudomonas fluorescens, 50 µg/mL (≈ 147 µM) against Bacillus subtilis and 50 µg/mL (≈ 147 µM) in the assay with Staphylococcus aureus. In assay [1], this compound yielded an IC50 of 54 µM.
On to `CCN(CC)CCOc1cc(O)c2c(=O)cc(-c3ccccc3)oc2c1`, for which the MIC in the assay on Escherichia coli, against Pseudomonas fluorescens, against Bacillus subtilis and in the assay on Staphylococcus aureus was > 50 µg/mL in each case. This compound also had a concentration for half-maximal inhibition (IC50) in assay [1] of 70 µM.
For the compound `O=c1cc(-c2ccccc2)oc2cc(OCCN3CCCCC3)cc(O)c12`, the MIC against Escherichia coli is 12.5 µg/mL (≈ 34.2 µM); in the assay on Pseudomonas fluorescens, 12.5 µg/mL (≈ 34.2 µM); in the assay on Bacillus subtilis, 25 µg/mL (≈ 68.4 µM); against Staphylococcus aureus, 12.5 µg/mL (≈ 34.2 µM).
